Target: T1, histamine H3 receptor (Homo sapiens, UniProt Q9Y5N1)
T1 construct: expressed in transfected cells; host or cells: CHO K1 cells carrying pSwitch, transfected with pGeneH3 and induced with mifepristone; clone 3H3; membranes
Assay: Histamine H3 functional antagonist assay ([35S]GTPγS SPA, membranes of CHO K1 cells expressing human H3)
Type: biochemical
Conditions: functional antagonism of histamine (0.3 μM) stimulated [35S]GTPγS binding, membranes of CHO K1 cells with human histamine H3
Experimental: A membrane preparation containing histamine H3 receptors may be prepared in accordance with the following procedures:
Ligated DNA was transformed into competent DH5α E. coli host bacterial cells and plated onto Luria Broth (LB) agar containing Zeocin™ (an antibiotic which allows the selection of cells expressing the sh ble gene which is present on pGene and pSwitch) at 50 μg ml^−1. Colonies containing the re-ligated plasmid were identified by restriction analysis. DNA for transfection into mammalian cells was prepared from 250 ml cultures of the host bacterium containing the pGeneH3 plasmid and isolated using a DNA preparation kit (Qiagen Midi-Prep) as per manufacturers guidelines (Qiagen).
CHO K1 cells previously transfected with the pSwitch regulatory plasmid (InVitrogen) were seeded at 2×10e6 cells per T75 flask in Complete Medium, containing Hams F12 (GIBCOBRL, Life Technologies) medium supplemented with 10% v/v dialysed foetal bovine serum, L-glutamine, and hygromycin (100 μg ml^−1), 24 hours prior to use. Plasmid DNA was transfected into the cells using Lipofectamine plus according to the manufacturers guidelines (InVitrogen). 48 hours post transfection cells were placed into complete medium supplemented with 500 μg ml^−1 Zeocin™.
10-14 days post selection 10 nM Mifepristone (InVitrogen), was added to the culture medium to induce the expression of the receptor. […] Approximately 1×10e7 cells were examined for receptor expression by staining with a rabbit polyclonal antibody, 4a, raised against the N-terminal domain of the histamine H3 receptor, incubated on ice for 60 minutes, followed by two washes in sorting medium. […] Following two further washes with Sorting Medium, cells were filtered through a 50 μm Filcon™ (BD Biosciences) and then analysed on a FACS Vantage SE Flow Cytometer fitted with an Automatic Cell Deposition Unit. […] Positively stained cells were sorted as single cells into 96-well plates, containing Complete Medium containing 500 μg ml^−1 Zeocin™ and allowed to expand before reanalysis for receptor expression via antibody and ligand binding studies.
All steps of the protocol are carried out at 4° C. and with pre-cooled reagents. The cell pellet is resuspended in 10 volumes of buffer A2 containing 50 mM N-2-hydroxyethylpiperazine-N′-2-ethanesulfonic acid (HEPES)(pH 7.40) supplemented with 10e−4M leupeptin (acetyl-leucyl-leucyl-arginal; Sigma L2884), 25 μg/ml bacitracin (Sigma B0125), 1 mM ethylenediamine tetra-acetic acid (EDTA), 1 mM phenylmethylsulfonyl fluoride (PMSF) and 2×10e−6M pepstain A (Sigma). The cells are then homogenised by 2×15 second bursts in a 1 litre glass Waring blender, followed by centrifugation at 500 g for 20 minutes. The supernatant is then spun at 48,000 g.for 30 minutes. The pellet is resuspended in 4 volumes of buffer A2 by vortexing for 5 seconds, followed by homogenisation in a Dounce homogeniser (10-15 strokes). At this point the preparation is aliquoted into polypropylene tubes and stored at −70° C. […]
The plate is then incubated on a shaker at room temperature for 30 minutes followed by centrifugation for 5 minutes at 1500 rpm. The plate is read between 3 and 6 hours after completion of centrifuge run in a Wallac Microbeta counter on a 1 minute normalised tritium count protocol. Data is analysed using a 4-parameter logistic equation. Basal activity used as minimum i.e. histamine not added to well.

T1 sequence (Q9Y5N1 whole entry): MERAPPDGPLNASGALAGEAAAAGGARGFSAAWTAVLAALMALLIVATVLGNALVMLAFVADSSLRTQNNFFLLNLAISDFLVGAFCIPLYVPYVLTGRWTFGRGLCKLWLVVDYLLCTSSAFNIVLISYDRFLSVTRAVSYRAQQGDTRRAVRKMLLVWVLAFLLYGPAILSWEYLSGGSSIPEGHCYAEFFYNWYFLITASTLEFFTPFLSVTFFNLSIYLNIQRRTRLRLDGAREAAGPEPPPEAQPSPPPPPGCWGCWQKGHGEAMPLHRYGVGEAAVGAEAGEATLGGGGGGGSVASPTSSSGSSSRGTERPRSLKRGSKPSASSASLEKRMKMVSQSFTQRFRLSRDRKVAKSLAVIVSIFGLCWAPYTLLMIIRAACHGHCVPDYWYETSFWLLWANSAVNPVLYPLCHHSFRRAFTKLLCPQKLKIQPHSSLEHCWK

Compound | Kb [nM]
CC(C)N1CCCN(C(=O)C2CCN(c3cnc(C(F)(F)F)cn3)CC2)CC1 [Example E139, 1-Isopropyl-4-[1-(5-trifluoromethylpyrazin-2-yl)-piperidine4-carbonyl]-[1,4]-diazepane] | < 3.16
N#Cc1ccc(N2CCC(C(=O)N3CCCN(C4CCC4)CC3)CC2)c(Cl)c1 [Example E65, 1-Cyclobutyl-4-[1-(4-cyano-2-chlorophenyl)-piperidine-4-carbonyl]-[1,4]-diazepane] | < 3.16
CC(C)N1CCCN(C(=O)C2CCN(c3cnc(C(F)(F)F)nc3)CC2)CC1 [Example E198, 1-Isopropyl-4-[1-(2-trifluoromethylpyrimidin-5-yl)-piperidine-4-carbonyl]-[1,4]-diazepane] | < 3.16
CC(C)N1CCN(C(=O)C2CCN(c3ccc(C(F)(F)F)nn3)CC2)C[C@@H]1C [Example E88, (S)-1-Isopropyl-4-[1-(6-trifluoromethyl-pyridazin-3-yl)-piperidine-4-carbonyl]-2-methyl piperazine] | < 3.16

Next, values leading:

Kb [nM] | Compound
< 3.16 | CCOC(=O)c1ccc(N2CCC(C(=O)N3CCN(C(C)C)CC3)CC2)cc1 [Example E8, 1-Isopropyl-4-[1-(4ethoxycarbonylphenyl)-piperidine-4-carbonyl]-piperazine]
< 3.16 | CC(C)N1CCN(C(=O)C2CCN(c3ccc4ncccc4c3)CC2)CC1 [Example E91, 1-Isopropyl-4-[1-(quinolin-6-yl)-piperidine4-carbonyl]piperazine]
< 3.16 | N#Cc1ccc(N2CCC(C(=O)N3CCN(C4CCC4)CC3)CC2)cc1 [Example E9, 1-Cyclobutyl-4-[1-(4-cyanophenyl)-piperidine-4-carbonyl]-piperazine]

Source: US7592347B2, “Piperazine derivates and their use for the treatment of neurological and psychiatric diseases” (Glaxo Group Limited, priority 2003, dated 2009)
